According to patent publication US20150359794A1, “IMPAIRMENT OF THE LARGE RIBOSOMAL SUBUNIT PROTEIN RPL24 BY DEPLETION OR ACETYLATION” (Buck Institute for Research on Aging, priority 2014, published 2015):

Legend:
Assay type in all cases: cell-based, human
ribosomal protein = test: Acetyl-lysine western blot of ribopellets (ribosomal protein acetylation); conditions: SKBR3 cells; for ribosomal protein acetylation, including the band that co-migrates with RPL24: western blot of ribopellets (FIG. 4c,d)
Protocol: (§1) Previous studies have shown that pan-inhibitors of class I and II histone deacetylases, like TSA, can rapidly destabilize a number of oncogenic transcripts including HER2 in a cycloheximide-dependent manner (FIG. 9). […] Thus, SKBR3 cells were treated with TSA to evaluate polysome protein acetylation and determine if, similar to RPL24 depletion, histone deacetylase inhibition can affect ribosome assembly dynamics. To detect early (2 h) ribosome or polysome acetylation following histone deacetylase inhibition treatment (1 μM TSA), SKBR3 polysomes were isolated using a discontinuous sucrose gradient as previously described. […] Mass spectrometry studies indicate that 15 ribosomal proteins, 11 large subunit proteins (RPL24 included) and 4 small subunit proteins, underwent at least a two-fold induction in acetylation following 2 h or 6 h TSA treatment (1 μM) (FIG. 4b, FIG. 10a-q).
(§2) Like TSA, the HDAC6 (class IIb)-selective inhibitors, Tubacin and Compound 101, as well as HDAC6 siRNA, all induce tubulin acetylation as expected as well as ribosomal protein acetylation, including the band that co-migrates with RPL24 (FIG. 4c,d, indicated by arrows). […] Thus, the tubulin acetylating effects of pan-histone deacetylase inhibition, known to be mediated by inhibition or knockdown of HDAC6, correspond to the observed ribosome and RPL24 acetylation responses induced by TSA.
(§3) Cells are lysed in RIPA buffer (10 mM Tris-HCL (pH 8.0), 1 mM EDTA, 0.5 mM EGTA, 1% triton X-100, 0.1% sodium deoxycholate, 0.1% SDS, 140 mM NaCl, 20 mM NaF, Complete EDTA-free protease inhibitor tablets (Roche Diagnostics Corp., Basel, Switzerland) and the phosphatase inhibitor cocktail PhosSTOP (Roche)), the latter two as indicated by the manufacturer's protocol. Equal amounts of protein are diluted in 2× sample buffer. Immunoblots on PVDF (Polyvinyldene Fluoride) membranes are blocked with nonfat milk in tris-buffered saline with 0.05% tween-20 (TBST). The following antibodies are incubated with membranes in 5% nonfat milk in TBST: RPL24 (Proteintech, Chicago, Ill.), Cyclin D1, Rack1, RPL4 (Santa Cruz Biotechnology, Santa Cruz, Calif.), NBS1, GAPDH (EMD Millipore Corporation, Chicago, Ill.), Survivin, β-tubulin, acetyl-lysine, eIF6, acetyl-H2B, H2B, (Cell Signaling Technology, Boston, Mass.), acetyl-tubulin, tubulin (Sigma Aldrich (St. Louis, Mo.))
Cells, plated at […] confluency, are treated as indicated. After treatment, cells are treated with 50 μg/ml cycloheximide for 15 minutes. Cells are lysed with a buffer containing 10 mM HEPES, 10 mM KCl, 75 mM NaCl, 10 mM MgCl2, 0.35% NP40, pH 7.9 supplemented with Complete EDTA-free protease inhibitor tablets, PhosSTOP phosphatase inhibitor tablets (Roche) per manufacturer's instructions, 50 μg/ml cycloheximide, SUPERase RNase inhibitors (Life Technologies) per manufacturer's instructions, 15 μM TSA, and 5 mM nicotinimide to inhibit histone deacetylases. Supernatants are collected as cytoplasmic preparations. Where indicated, pellets containing nuclei are resuspended in RIPA buffer (described above). The suspension is spun at 13,000 rpm for 5 min and supernatants are collected as nuclear preparations.
Ribosomes are subsequently isolated from cytoplasmic preparations as described previously. Briefly, lysates are layered on top of a 12% and 33% discontinuous sucrose gradient and spun at 38,000 rpm for 2 h. The resulting polysome pellet is then resuspended, stripped of RNA with acetic acid, and then pelleted with acetone. The pellet is then resuspended in 8 M urea, 2% CHAPS, and 25 mM dithiothreitol (DTT).
FIG. 4: Ribosomal protein acetylation is induced by histone deacetylase inhibition. (a-c) SKBR3 cells were treated with the indicated drugs for the indicated period of time. (d) SKBR3 cells were transfected with the indicated siRNAs and allowed to incubate for 72 hours. (a, c, d). The indicated western blots were performed in ribopellets, total cytoplasmic lysates, or nuclear extracts. […]

tubulin = test: Western blot for tubulin acetylation in SKBR3 cells; conditions: western blot (FIG. 4c,d)
Description: as §2, §3
FIG. 4: Ribosomal protein acetylation is induced by histone deacetylase inhibition. (a-c) SKBR3 cells were treated with the indicated drugs for the indicated period of time. (d) SKBR3 cells were transfected with the indicated siRNAs and allowed to incubate for 72 hours. (a, c, d). The indicated western blots were performed in ribopellets, total cytoplasmic lysates, or nuclear extracts. (b) Mass spectrometry was performed on ribopellets as described in materials and methods and in FIG. 6. The fold change in acetylated peptide to total peptide case by TSA treatment is plotted. Only proteins that underwent at least a two-fold induction upon TSA treatment are shown. Error bars represent the standard error of the mean for three biological replicates.

histone H2B = test: Western blot for histone H2B acetylation in SKBR3 cells; conditions: western blot (FIG. 4c)
Description: as §2
Cells are lysed in RIPA buffer (10 mM Tris-HCL (pH 8.0), 1 mM EDTA, 0.5 mM EGTA, 1% triton X-100, 0.1% sodium deoxycholate, 0.1% SDS, 140 mM NaCl, 20 mM NaF, Complete EDTA-free protease inhibitor tablets (Roche Diagnostics Corp., Basel, Switzerland) and the phosphatase inhibitor cocktail PhosSTOP (Roche)), the latter two as indicated by the manufacturer's protocol. Equal amounts of protein are diluted in 2× sample buffer. Immunoblots on PVDF (Polyvinyldene Fluoride) membranes are blocked with nonfat milk in tris-buffered saline with 0.05% tween-20 (TBST). […]

HER2 mRNA = test: Northern blot of HER2 transcript levels; conditions: SKBR3 cells, cycloheximide 50 μg/ml, 6 h with TSA 1 μM
Protocol: as §1
Cells are harvested and RNA is extracted using Trizol (Life Technologies) per manufacturer's protocol. Northern blots are performed as previously described. Briefly, RNA is then electrophoresed into 1% agarose-formaldehyde gels and transferred onto PVDF membranes. Membranes are then hybridized with ^32P-labelled cDNA probes for HER2 or GAPDH, washed, and visualized by autoradiography.
SKBR3 cells were treated with TSA (1 μM, 6 h) and/or cycloheximide (CX, 50 μg/ml, 6 h) or with the respective vehicle controls. […]

`O=C(NO)c1cnc(NC2(c3cccc(F)c3)CCCCC2)nc1` [Compound 101] was tested, and the “ribosomal protein acetylation, including the band that co-migrates with RPL24” value (ribosomal protein) was “induce” and the tubulin acetylation (tubulin) was “induce”.
For `Nc1ccccc1NC(=O)c1ccc(CNC(=O)OCc2cccnc2)cc1` [Entinostat], the ribosomal protein acetylation (ribosomal protein; even at a dose of 20 μM (FIG. 4c)) was “does not alter”, the “histone H2B acetylation” value (histone H2B) was “induces” and the tubulin acetylation (tubulin) was “without acetylating tubulin”.
In the case of `O=C(CCCCCCC(=O)Nc1ccc([C@H]2O[C@@H](CSc3nc(-c4ccccc4)c(-c4ccccc4)o3)C[C@@H](c3ccc(CO)cc3)O2)cc1)NO` [Tubacin], the “ribosomal protein acetylation, including the band that co-migrates with RPL24” value (ribosomal protein) is reported as “induce” and the tubulin acetylation (tubulin) is reported as “induce”.
`C[C@@H]1C[C@@H]([C@H](O)CC2CC(=O)NC(=O)C2)C(=O)[C@@H](C)C1` [cycloheximide] was tested, and the “effect on TSA-induced HER2 mRNA decay” value (HER2 mRNA) was “abrogated”.
